Columns and labels:
[1] = test system: HIV-1IIIB in CEM-SS cells; assay: HIV-1 antiviral assay (CPE reduction, MTS); format: cell-based; details: peptide 10 micrograms per ml, 6 days post-infection
CEM-SS cells = assay: Cytotoxicity in HIV-1 assay (MTS cell viability); details: peptide 10 micrograms per ml
HepG2-2.2.15 cells = assay: Cytotoxicity in HBV assay (dye uptake cell viability); format: cell-based; details: test peptide 10 micrograms per ml, % cell control
[2] = test system: MRC-5 cells (human embryonal lung fibroblasts); details: 6 days
[3] = test system: hepatitis B virus (HBV) ayw strain in HepG2-2.2.15 cells; assay: HBV replication assay (secreted HBV DNA, TaqMan PCR); format: cell-based; details: test peptide 10 micrograms per ml; six days; HBV DNA in supernatant
Protocol: HepG2-2.2.15 is a stable cell line containing the hepatitis B virus (HBV) ayw strain genome (ATCC Cat. No. CRL-11997). Antiviral compounds blocking any late step of viral replication such as transcription, translation, pregenome encapsidation, reverse transcription, particle assembly and release can be identified and characterized using this cell line.
HepG2-2.2.15 cells were plated in 96-well microtiter plates. After 16-24 hours the confluent monolayer of HepG2-2.2.15 cells was washed and the medium was replaced with complete medium containing test peptide—10 micrograms per ml—in duplicate. […] Three days later the culture medium was replaced with fresh medium containing the peptide. Six days following the initial administration of the peptide, the cell culture supernatants was collected, treated with pronase and DNAse and then used in a real-time quantitative TaqMan PCR assay. The PCR-amplified HBV DNA was detected in real-time by monitoring increases in fluorescence signals that result from the exonucleolytic degradation of a quenched fluorescence probe molecule that hybridizes to the amplified HBV DNA. For each PCR amplification, a standard curve was simultaneously generated using dilutions of purified HBV DNA. Antiviral activity was calculated from the reduction in HBV DNA levels (% virus control). […]

[4] = Cytotoxicity in HBV assay (dye uptake cell viability); format: cell-based; details: human, HepG2-2.2.15 cells (stable line containing HBV ayw genome), test peptide 10 micrograms per ml, % cell control
Pseudomonas aeruginosa = format: cell-based; details: 5 micrograms per ml
Streptococcus pneumoniae = format: cell-based; details: 5 micrograms per ml
Human A549 cells = assay: Propidium iodide cell cycle assay; format: cell-based; details: 24 hours, test peptide 10 micrograms per ml
[5] = test system: Human Peripheral Blood Mononuclear Cells (PBMC), T cell proliferation; assay: T cell proliferation assay (PHA, 3H-thymidine); format: cell-based; details: test peptide 10 micrograms per ml, 3 days plus 12 hours 3H-thymidine
[6] = test system: Human Peripheral Blood Mononuclear Cells (PBMC), B cell proliferation; assay: B cell proliferation assay (SAC plus IL-2, 3H-thymidine); format: cell-based; details: test peptide 10 micrograms per ml, 3 days plus 12 hours 3H-thymidine
RAW 264.7 cells = assay: Phagocytosis assay (Fluorescein-labeled Escherichia coli); format: cell-based, mouse; details: test peptide 10 micrograms per ml
[7] = test system: spleen cells of Ovalbumin-immunized Balb/c mice; assay: Th1/Th2 cytokine profiling assay; format: cell-based, mouse; details: test peptide 10 micrograms per ml; Ovalbumin restimulation; 72 hours
[8] = test system: TNF alpha production in PBMC-derived macrophages; assay: TNF alpha production assay (LPS-stimulated macrophages, ELISA); format: cell-based, human; details: test peptide 10 micrograms per ml, lipopolysaccharide 200 ng/ml, overnight
Excerpt: Not stimulated macrophages served as negative background control.

[9] = test system: Primary Human endothelial cells (HUVEC); assay: Endothelial cell migration assay; format: cell-based; details: test peptide 10 micrograms per ml, 22 hours
HUVEC = assay: Endothelial tube formation assay; format: cell-based, human; details: test peptide 10 micrograms per ml, 20 hours
Excerpt: Positive control was vehicle only.

MRSA = details: 5 micrograms per ml
in vitro [10] = details: human, CEM-SS cells
in vitro [11] = details: human, MRC-5 cells (human embryonal lung fibroblasts)
[12] = test system: HCMV strain AD169 in MRC-5 cells; assay: HCMV plaque reduction assay; details: HCMV AD169 in MRC-5 cells; peptide 10 micrograms per ml; 7-10 days

In the case of Cc1cn([C@H]2C[C@H](N=[N+]=[N-])[C@@H](CO)O2)c(=O)[nH]c1=O [AZT, reference compound], the “% CPE reduction in HIV-1 infected CEM-SS cells” value [1] is reported as 99% and the “% Cell viability” value (CEM-SS cells) is reported as 97%.

In the case of Nc1ccn([C@@H]2CS[C@H](CO)O2)c(=O)n1 [Compound 3TC, reference compound], the “% Cell viability” value (HepG2-2.2.15 cells) is reported as 95.8%.

In the case of Nc1nc(O)c2ncn(COC(CO)CO)c2n1 [Ganciclovir], the “% Cell viability” value [2] is reported as 100%.

For CSCC[C@H](NC(=O)[C@H](CC(C)C)NC(=O)CNC(=O)[C@@H](NC(=O)[C@H](Cc1ccccc1)NC(=O)[C@H](Cc1ccccc1)NC(=O)[C@H](CC(=O)O)NC(=O)[C@H](Cc1c[nH]cn1)NC(=O)[C@H](CCSC)NC(=O)[C@@H](N)CC(=O)O)C(C)C)C(N)=O [Neurokinin B], the “% CPE reduction in HIV-1 infected CEM-SS cells” value [1] was 0.0%, the “% inhibition of HBV replication in HEP G2 cells” value [3] was 78.5% and the viability at 144 h, 10 micrograms per ml [4] was 96.1%. For the same compound, the “% inhibition” value (Pseudomonas aeruginosa) was 0.0%, the “% inhibition” value (Streptococcus pneumoniae) was 0.0% and the “Cell cycle analysis G0/G1” value (Human A549 cells) was 53.0. The “Cell cycle analysis G2/M” value (Human A549 cells) was 14.8, the “Cell cycle analysis S” value (Human A549 cells) was 32.2 and the “% of PHA induced control” value [5] was 88.1%. The “% of SAC/IL2 induced control” value [6] was 115.1%, the “% of control phagocytosis” value (RAW 264.7 cells) was 105.9% and the “IFNγ spleen cells; TH1 response (% of control)” value [7] was 126.8 % of control. For the same compound, the “IL-2 spleen cells (% of control)” value [7] was 198.0 % of control, the “IL-4 spleen cells; TH2 response (% of control)” value [7] was 103.5 % of control and the “IL-5 spleen cells; TH2 response (% of control)” value [7] was 99.2 % of control. For the same compound, the “TNF-a spleen cells; TH1 response (% of control)” value [7] was 151.0 % of control, the “% of LPS induction” value [8] was 115.9% and the “% inhibition of migration” value [9] was −2%. The “% inhibition of tube formation” value (HUVEC) was 14%, the “% inhibition” value (MRSA) was 0.0% and the viability at 10 micrograms per ml (in vitro [10]) was 98.5%. The viability at 144 h (in vitro [11]) was 100% and the “% plaque reduction” value [12] was 3.2%.
